According to publication PMC8217813, “Bridging Computational Vaccinology and Vaccine Development Through Systematic Identification, Characterization, and Downselection of Conserved and Variable Circumsporozoite Protein CD4 T Cell Epitopes From Diverse Plasmodium falciparum Strains” (Frontiers in Immunology, 2021):
Read-outs that look alike come from different tables or passages of the source. Peptide text beside a SMILES is read from it.

Assays:
[1] = target: T1, HLA-DRB1*0101 (Homo sapiens, UniProt P01903+P01911, A100R/D57E/F55L/F60I/F76Y/I96L/L162R/M171V/P40L/Q125E/R42F/V115G/Y59C); assay: In vitro class II HLA binding competition assay
T1 construct: purchased
Experimental: (§1) EpiVax conducted in vitro quantification of peptide-HLA binding affinity utilizing a competition assay format per the methodology described in ([35]). Briefly, a fluorescent-labeled, high-binding reference peptide and titrating concentrations of test peptide were incubated in a 96-well plate format with limiting concentrations of class II HLA monomers in aqueous buffer for 24-hours. Post incubation, the mixtures were moved to a 96-well plate coated with anti-HLA-DR antibody to capture HLA-peptide complexes. Time-resolved fluorescence measurement of the bound labeled reference peptide complex present in each mixture were detected with a europium-linked probe via fluorescent spectrophotometry using a SpectraMax M5 system. HLA binding affinity of each test peptide was expressed as the percent inhibition of reference peptide binding. Percent inhibition values (across the test peptide titration range) were used to calculate the half maximal inhibitory concentration (IC50) of each test peptide. For these studies, test peptides were assessed using a range of final concentrations from 100,000 nM to 100 nM and all peptides were reconstituted in dimethyl sulfoxide (DMSO).

[2] = target: T2, HLA-DRB1*0401 (Homo sapiens, UniProt P01903+P01911, A100K/A169T/F76Y/I96L/K127E/L162R/M171V/N62H/P40V/Q125Y/R42H/S133A/S149N/S66Y/V115G/V209L/W38E); assay: In vitro class II HLA binding competition assay
T2 construct: purchased
Experimental: as §1

[3] = target: HLA-DRB1*0701 (Homo sapiens, UniProt P01903+P01911, A100R/A102G/A103Q/D57E/D86V/E43K/F76Y/K127E/L162R/M171V/P40G/Q125H/Q99D/R33Q/R42Y/R54Q/S133A/S66F/T210M/V115G/Y107V/Y59L/Y89S); assay: In vitro class II HLA binding competition assay
Experimental: as §1

[4] = target: HLA-DRB1*0801 (Homo sapiens, UniProt P01903+P01911, A100R/A103L/A169T/D86S/F76Y/H45Y/I96F/K41T/L162R/M171V/P40S/Q125H/Q178H/Q39Y/Q99D/R218S/R42G/S66Y/V115G/W38E); assay: In vitro class II HLA binding competition assay; settings: competition with fluorescent-labeled reference peptide, class II HLA monomers, 24-hours, test peptide 100,000 nM to 100 nM, time-resolved fluorescence
Experimental: as §1

[5] = target: HLA-DRB1*1301 (Homo sapiens, UniProt P01903+P01911, A100E/A169T/K41T/L162R/M171V/P40S/Q125H/Q178H/Q39Y/Q99D/R42S/S66N/T262R/W38E/Y61H); assay: In vitro class II HLA binding competition assay; settings: competition with fluorescent-labeled reference peptide, class II HLA monomers, 24-hours, test peptide 100,000 nM to 100 nM, time-resolved fluorescence
Experimental: as §1

[6] = target: T3, HLA-DRB1*1501 (Homo sapiens, UniProt P01903+P01911); assay: In vitro class II HLA binding competition assay
T3 construct: purchased
Experimental: as §1

[7] = system: CD4 T cells co-cultured with autologous DCs from PBMCs; type: cell-based, human
[8] = target: T4, HLA A*0201 (Homo sapiens, UniProt P04439, D140Y/D185E/D98H/E176V/E277Q/G131W/G231S/I119V/I121R/I166T/I218V/L300P/L318F/N151K/N90K/P208A/P217A/Q86G/Q94H/R138H/R169H/T345S); assay: biochemical; type: binding
T4 construct: Pure Protein, LLC (ran the assay)

[9] = target: T5, HLA B*0702 (Homo sapiens, UniProt P01889); assay: biochemical; type: binding; settings: allele B0702; cell-free competition with fluorescently labeled control peptide, fluorescence polarization at 72 hours
T5 construct: Pure Protein, LLC (ran the assay)

[10] = target: T6, HLA A*0301 (Homo sapiens, UniProt P04439); assay: In vitro class I HLA binding competition assay (fluorescence polarization); settings: allele A0301; cell-free competition with fluorescently labeled control peptide, fluorescence polarization at 72 hours
T6 construct: Pure Protein, LLC (ran the assay)

[11] = DR1 donors N=5, positive = Stimulation Index ≥1.5-fold above baseline, ICCS, 5 µg/mL peptide
[12] = DR3 donors N=6, positive = Stimulation Index ≥1.5-fold above baseline, ICCS, 5 µg/mL peptide
[13] = DR4 donors N=10, positive = Stimulation Index ≥1.5-fold above baseline, ICCS, 5 µg/mL peptide
[14] = DR7 donors N=4, positive = Stimulation Index ≥1.5-fold above baseline, ICCS, 5 µg/mL peptide
[15] = DR8 donors N=4, positive = Stimulation Index ≥1.5-fold above baseline, ICCS, 5 µg/mL peptide
[16] = DR9 donors N=4, positive = Stimulation Index ≥1.5-fold above baseline, ICCS, 5 µg/mL peptide
[17] = DR11 donors N=4, positive = Stimulation Index ≥1.5-fold above baseline, ICCS, 5 µg/mL peptide
[18] = DR13 donors N=7, positive = Stimulation Index ≥1.5-fold above baseline, ICCS, 5 µg/mL peptide
[19] = DR15 donors N=7, positive = Stimulation Index ≥1.5-fold above baseline, ICCS, 5 µg/mL peptide
[20] = allele A0201, cell-free competition with fluorescently labeled control peptide, fluorescence polarization at 72 hours, read-out: IC50

SMILES: CC[C@H](C)[C@H](NC(C)=O)C(=O)N[C@@H](CCC(=O)O)C(=O)N[C@@H](CCC(N)=O)C(=O)N[C@@H](Cc1ccc(O)cc1)C(=O)N[C@@H](CC(C)C)C(=O)N[C@@H](CCCCN)C(=O)N[C@@H](CCCCN)C(=O)N[C@H](C(=O)N[C@@H](CCC(N)=O)C(=O)N[C@@H](Cc1ccc(O)cc1)C(=O)N[C@@H](CO)C(=O)N[C@@H](CC(C)C)C(=O)N[C@@H](CO)C(=O)N[C@H](C(=O)N[C@@H](CCC(=O)O)C(=O)N[C@@H](Cc1c[nH]c2ccccc12)C(=O)N[C@@H](CO)C(=O)N1CCC[C@H]1C(=O)N[C@@H](CS)C(N)=O)[C@@H](C)O)[C@@H](C)CC [ICS7] (Ac-IEQYLKKIQYSLSTEWSPC-NH2)
- IC50 [1]: > 100 µM
- IC50 [2]: 32.8 µM
- IC50 [3]: 2.76 µM
- IC50 [4]: 6.09 µM
- IC50 [5]: 17.9 µM
- IC50 [6]: 63.2 µM
- median SI, IFN-γ recall responses [7]: 1.75
- Percentage of donors demonstrating IFN-γ responses, DR1 ([7]; DR1 donors N=5, positive = Stimulation Index ≥1.5-fold above baseline, ICCS after 14-day co-culture, 5 µg/mL peptide): 60%
- Percentage of donors demonstrating IL-2 responses, DR1 [7, 11]: 60%
- Percentage of donors demonstrating IL-4 responses, DR1 [7, 11]: 20%
- Percentage of donors demonstrating IL-10 responses, DR1 [7, 11]: 0%
- Percentage of donors demonstrating TNF-α responses, DR1 [7, 11]: 40%
- Percentage of donors demonstrating IFN-γ responses, DR3 ([7]; DR3 donors N=6, positive = Stimulation Index ≥1.5-fold above baseline, ICCS after 14-day co-culture, 5 µg/mL peptide): 67%
- Percentage of donors demonstrating IL-2 responses, DR3 [7, 12]: 33%
- Percentage of donors demonstrating IL-4 responses, DR3 [7, 12]: 0%
- Percentage of donors demonstrating IL-10 responses, DR3 [7, 12]: 0%
- Percentage of donors demonstrating TNF-α responses, DR3 [7, 12]: 50%
- Percentage of donors demonstrating IFN-γ responses, DR4 ([7]; DR4 donors N=10, positive = Stimulation Index ≥1.5-fold above baseline, ICCS after 14-day co-culture, 5 µg/mL peptide): 70%
- Percentage of donors demonstrating IL-2 responses, DR4 [7, 13]: 70%
- Percentage of donors demonstrating IL-4 responses, DR4 [7, 13]: 0%
- Percentage of donors demonstrating IL-10 responses, DR4 [7, 13]: 10%
- Percentage of donors demonstrating TNF-α responses, DR4 [7, 13]: 80%
- Percentage of donors demonstrating IFN-γ responses, DR7 ([7]; DR7 donors N=4, positive = Stimulation Index ≥1.5-fold above baseline, ICCS after 14-day co-culture, 5 µg/mL peptide): 75%
- Percentage of donors demonstrating IL-2 responses, DR7 [7, 14]: 75%
- Percentage of donors demonstrating IL-4 responses, DR7 [7, 14]: 0%
- Percentage of donors demonstrating IL-10 responses, DR7 [7, 14]: 25%
- Percentage of donors demonstrating TNF-α responses, DR7 [7, 14]: 75%
- Percentage of donors demonstrating IFN-γ responses, DR8 ([7]; DR8 donors N=4, positive = Stimulation Index ≥1.5-fold above baseline, ICCS after 14-day co-culture, 5 µg/mL peptide): 75%
- Percentage of donors demonstrating IL-2 responses, DR8 [7, 15]: 75%
- Percentage of donors demonstrating IL-4 responses, DR8 [7, 15]: 0%
- Percentage of donors demonstrating IL-10 responses, DR8 [7, 15]: 0%
- Percentage of donors demonstrating TNF-α responses, DR8 [7, 15]: 100%
- Percentage of donors demonstrating IFN-γ responses, DR9 ([7]; DR9 donors N=4, positive = Stimulation Index ≥1.5-fold above baseline, ICCS after 14-day co-culture, 5 µg/mL peptide): 50%
- Percentage of donors demonstrating IL-2 responses, DR9 [7, 16]: 75%
- Percentage of donors demonstrating IL-4 responses, DR9 [7, 16]: 0%
- Percentage of donors demonstrating IL-10 responses, DR9 [7, 16]: 0%
- Percentage of donors demonstrating TNF-α responses, DR9 [7, 16]: 50%
- Percentage of donors demonstrating IFN-γ responses, DR11 ([7]; DR11 donors N=4, positive = Stimulation Index ≥1.5-fold above baseline, ICCS after 14-day co-culture, 5 µg/mL peptide): 25%
- Percentage of donors demonstrating IL-2 responses, DR11 [7, 17]: 25%
- Percentage of donors demonstrating IL-4 responses, DR11 [7, 17]: 0%
- Percentage of donors demonstrating IL-10 responses, DR11 [7, 17]: 0%
- Percentage of donors demonstrating TNF-α responses, DR11 [7, 17]: 25%
- Percentage of donors demonstrating IFN-γ responses, DR13 ([7]; DR13 donors N=7, positive = Stimulation Index ≥1.5-fold above baseline, ICCS after 14-day co-culture, 5 µg/mL peptide): 86%
- Percentage of donors demonstrating IL-2 responses, DR13 [7, 18]: 57%
- Percentage of donors demonstrating IL-4 responses, DR13 [7, 18]: 0%
- Percentage of donors demonstrating IL-10 responses, DR13 [7, 18]: 14%
- Percentage of donors demonstrating TNF-α responses, DR13 [7, 18]: 71%
- Percentage of donors demonstrating IFN-γ responses, DR15 ([7]; DR15 donors N=7, positive = Stimulation Index ≥1.5-fold above baseline, ICCS after 14-day co-culture, 5 µg/mL peptide): 43%
- Percentage of donors demonstrating IL-2 responses, DR15 [7, 19]: 57%
- Percentage of donors demonstrating IL-4 responses, DR15 [7, 19]: 0%
- Percentage of donors demonstrating IL-10 responses, DR15 [7, 19]: 14%
- Percentage of donors demonstrating TNF-α responses, DR15 [7, 19]: 57%

SMILES: CC(C)C[C@H](NC(=O)[C@@H](NC(=O)[C@H](CCCNC(=N)N)NC(=O)[C@@H](NC(=O)[C@H](CC(N)=O)NC(=O)[C@H](CO)NC(=O)[C@H](CO)NC(=O)[C@H](CO)NC(=O)CNC(=O)[C@H](Cc1ccc(O)cc1)NC(=O)[C@H](CS)NC(=O)[C@H](CCC(N)=O)NC(=O)[C@H](Cc1ccc(O)cc1)NC(=O)[C@H](CCC(=O)O)NC(=O)[C@H](CCC(N)=O)NC(=O)[C@H](Cc1ccccc1)NC(=O)[C@H](CCCCN)NC(=O)[C@@H](N)CCCCN)[C@@H](C)O)C(C)C)C(=O)N[C@@H](CC(N)=O)C(=O)N[C@@H](CCC(=O)O)C(N)=O [Cluster C1] (H-KKFQEYQCYGSSSNTRVLNE-NH2)
- IC50 ([1]; competition with fluorescent-labeled reference peptide, class II HLA monomers, 24-hours, test peptide 100,000 nM to 100 nM, time-resolved fluorescence): 50.1 µM
- IC50 ([3]; competition with fluorescent-labeled reference peptide, class II HLA monomers, 24-hours, test peptide 100,000 nM to 100 nM, time-resolved fluorescence, read-out: IC50, DRB1*0701): 36.7 µM
- IC50 ([6]; competition with fluorescent-labeled reference peptide, class II HLA monomers, 24-hours, test peptide 100,000 nM to 100 nM, time-resolved fluorescence, read-out: IC50, DRB1*1501): 1.77 µM

SMILES: CC[C@H](C)[C@H](NC(=O)[C@H](CCCCN)NC(=O)[C@H](CCCCN)NC(=O)[C@H](CC(C)C)NC(=O)[C@H](Cc1ccc(O)cc1)NC(=O)[C@H](CCC(=O)O)NC(=O)[C@@H](NC(=O)[C@@H](NC(=O)[C@@H](N)Cc1c[nH]cn1)[C@@H](C)CC)[C@@H](C)O)C(=O)O [Cluster 315_ICS2] (H-HITEYLKKI-OH)
- IC50 [8]: 148 µM

SMILES: CC[C@H](C)[C@H](NC(=O)CNC(=O)[C@H](CC(N)=O)NC(=O)CNC(=O)[C@H](CS)NC(=O)[C@@H](NC(=O)[C@@H](NC(=O)[C@@H](N)CO)C(C)C)[C@@H](C)O)C(=O)N[C@@H](CCC(N)=O)C(=O)N[C@H](C(=O)O)C(C)C [Cluster 335_3D7] (H-SVTCGNGIQV-OH)
- IC50 [8, 20]: 489 µM
- IC50 (nM) [9]: Non-Binder

SMILES: CC[C@H](C)[C@H](NC(=O)[C@H](CO)NC(=O)[C@H](CO)NC(=O)[C@H](CC(N)=O)NC(=O)[C@@H](NC(=O)[C@@H](NC(=O)[C@H](CC(N)=O)NC(=O)[C@H](Cc1ccccc1)NC(=O)[C@@H](NC(=O)[C@@H](N)CO)C(C)C)C(C)C)C(C)C)C(=O)O [Cluster 376_3D7] (H-SVFNVVNSSI-OH)
- IC50 [8, 20]: 342 µM
- IC50 (nM) [10]: Non-Binder
- IC50 (nM) [9]: Non-Binder
